Key:
[1] = target: CHI3L1/galectin-3 interaction (hCHI3L1-His with galectin-3-GST) (Homo sapiens, UniProt P36222); assay: AlphaLISA, inhibition of CHI3L1/galectin-3 interaction; type: binding
CHI3L1 (hCHI3L1-His) = CHI3L1 (hCHI3L1-His) (Homo sapiens, UniProt P36222); assay: SPR; type: binding
CHI3L1 (hCHI3L1-His), sequence (P36222 22-383): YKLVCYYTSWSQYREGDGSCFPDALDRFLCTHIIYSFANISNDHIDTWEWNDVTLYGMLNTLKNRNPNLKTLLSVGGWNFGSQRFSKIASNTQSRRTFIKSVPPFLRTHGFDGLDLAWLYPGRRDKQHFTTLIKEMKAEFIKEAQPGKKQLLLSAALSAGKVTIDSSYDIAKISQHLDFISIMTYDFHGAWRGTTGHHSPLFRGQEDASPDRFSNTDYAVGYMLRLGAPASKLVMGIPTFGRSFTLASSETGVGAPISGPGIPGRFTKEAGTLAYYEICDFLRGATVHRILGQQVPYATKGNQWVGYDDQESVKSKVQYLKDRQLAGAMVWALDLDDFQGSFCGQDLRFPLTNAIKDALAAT

CHI3L1/galectin-3 interaction (hCHI3L1-His with galectin-3-GST), sequence (P36222 22-383): as above
CHI3L1/galectin-3 interaction (hCHI3L1-His with galectin-3-GST), sequence (P17931 2-250 partner): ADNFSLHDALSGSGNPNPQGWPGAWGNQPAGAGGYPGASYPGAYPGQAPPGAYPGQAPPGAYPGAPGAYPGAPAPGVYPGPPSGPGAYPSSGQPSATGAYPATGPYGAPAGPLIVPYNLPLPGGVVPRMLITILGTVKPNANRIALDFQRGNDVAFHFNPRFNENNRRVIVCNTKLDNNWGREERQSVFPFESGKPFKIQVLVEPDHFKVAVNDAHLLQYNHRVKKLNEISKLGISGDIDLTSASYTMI

CC1Cc2ccccc2CN1C(=O)NCc1cc(=O)n2ccccc2n1 (stereo not shown) [1-4]
IC50 [1]: 23.5 ± 2 µM | Kd (CHI3L1 (hCHI3L1-His)): 10.4 ± 1 µM

Cc1c(NC(=O)Cn2cnc3sccc3c2=O)cnn1C1CCCC1 [1-7]
IC50 [1]: 15.4 ± 4.7 µM | Kd (CHI3L1 (hCHI3L1-His)): 7.4 ± 0.78 µM
